≈ marks a conversion by molar mass, not a printed value. Calls of active or inactive are those of the source. No cut-off for these calls is given here.
What was measured:
[1] = system: Acinetobacter baumannii; assay: Antimicrobial activity against Acinetobacter baumannii AB1901 assessed as increase in absorbance incubated for 20 to 22 hrs; type: functional; details: time 20-22 hrs
[2] = system: Escherichia coli; assay: Antimicrobial activity against Escherichia coli ATCC 25922 assessed as increase in absorbance incubated for 20 to 22 hrs in presence of NH4+ physiological salt; type: functional, organism-based; details: time 20-22 hrs
[3] = system: Escherichia coli; assay: Antimicrobial activity against Escherichia coli ATCC 25922 assessed as increase in absorbance incubated for 20 to 22 hrs in presence of K+ physiological salt; type: functional, organism-based; details: time 20-22 hrs
[4] = system: Cell membrane; assay: Induction of Outer membrane permeability in Escherichia coli ATCC 25922 incubated for 30 mins by N-phenyl-1-naphthylamine (NPN) uptake assay; type: subcellular; details: dose 1-16 µM
[5] = system: Escherichia coli; assay: Inhibition of respiratory chain dehydrogenase (RCD) activity in Escherichia coli ATCC 25922 at 4 uM incubated for 90 mins by TTC assay
[6] = system: Cell membrane; assay: Induction of depolarization of cytoplasmic membrane (CM) in Escherichia coli ATCC 25922 assessed as fluorescence changes at 1/2 to 3 times of MIC by fluorescent probe DiSC3-5 assay; type: subcellular; details: time 1000-3000 sec
[7] = system: Staphylococcus aureus; assay: Antimicrobial activity against Staphylococcus aureus 11011 assessed as increase in absorbance incubated for 20 to 22 hrs; type: functional; details: time 20-22 hrs
[8] = system: Staphylococcus aureus; assay: Antimicrobial activity against Staphylococcus aureus 25923 assessed as increase in absorbance incubated for 20 to 22 hrs; type: functional; details: time 20-22 hrs
[9] = system: Escherichia coli; assay: Antimicrobial activity against Escherichia coli ATCC 25922 assessed as increase in absorbance incubated for 20 to 22 hrs; type: functional; details: time 20-22 hrs
[10] = system: Acinetobacter baumannii; assay: Antimicrobial activity against Acinetobacter baumannii AB1902 assessed as increase in absorbance incubated for 20 to 22 hrs; type: functional; details: time 20-22 hrs
[11] = system: Escherichia coli; assay: Antimicrobial activity against Escherichia coli ATCC 25922 assessed as increase in absorbance incubated for 4 hrs in presence of 25% serum; type: functional, organism-based
[12] = system: Escherichia coli; assay: Induction of membrane damage in Escherichia coli ATCC 25922 assessed as damaged membrane surface by analysing leakage (hollow interiors) at 8 uM measured after 1 hr incubation by TEM analysis; type: functional, organism-based
[13] = system: Escherichia coli; assay: Antimicrobial activity against Escherichia coli ATCC 25922 assessed as increase in absorbance at MIC concentration in presence of […] ug/ml Lipopolysaccharide incubated for 8 hrs; type: functional, organism-based; details: dose 64.0 µg/ml
[14] = system: Escherichia coli; assay: Antimicrobial activity against Escherichia coli K99 assessed as increase in absorbance incubated for 20 to 22 hrs; type: functional; details: time 20-22 hrs
[15] = system: Escherichia coli; assay: Antimicrobial activity against Escherichia coli ATCC 25922 assessed as increase in absorbance at MIC concentration in presence of < 8 ug/ml Lipopolysaccharide incubated for 8 hrs; type: functional, organism-based; details: dose < 8.0 µg/ml
[16] = system: Salmonella typhimurium; assay: Antimicrobial activity against Salmonella typhimurium 14028 assessed as increase in absorbance incubated for 20 to 22 hrs; type: functional, Salmonella enterica subsp. enterica serovar Typhimurium; details: Salmonella enterica, time 20-22 hrs
[17] = system: Escherichia coli; assay: Induction of membrane damage in Escherichia coli ATCC 25922 assessed as ruptured membrane by analysing red fluorescence at 8 uM measured after 1 hr incubation by PI - live and dead staining based fluorescence microscopy; type: functional, organism-based
[18] = system: Escherichia coli; assay: Antimicrobial activity against Escherichia coli ATCC 25922 assessed as increase in absorbance at 8 mg/ml incubated for 8 hrs in presence of trypsin; type: functional, organism-based
[19] = system: Pseudomonas aeruginosa; assay: Antimicrobial activity against Pseudomonas aeruginosa 25349 assessed as increase in absorbance incubated for 20 to 22 hrs; type: functional; details: time 20-22 hrs
[20] = system: Escherichia coli; assay: Antimicrobial activity against Escherichia coli K88 assessed as increase in absorbance incubated for 20 to 22 hrs; type: functional; details: time 20-22 hrs
[21] = system: Enterococcus faecalis; assay: Antimicrobial activity against Enterococcus faecalis 29212 assessed as increase in absorbance incubated for 20 to 22 hrs; type: functional; details: time 20-22 hrs
[22] = system: Cell membrane; assay: Induction of cytoplasmic membrane (CM) permeabilization in Escherichia coli ATCC 25922 assessed as utilization of ONPG at 1/2 MIC; type: subcellular
[23] = system: Escherichia coli; assay: Antimicrobial activity against Escherichia coli ATCC 25922 assessed as increase in absorbance incubated for 4 hrs in presence of 50% serum; type: functional, organism-based
[24] = system: Escherichia coli; assay: Reduction in intracellular ATP level in Escherichia coli ATCC 25922 at 2 uM measured after 1 hr incubation by Enhanced ATP assay kit; type: functional; parameters: scale not given: the % may be the effect or the level left
[25] = system: Salmonella typhimurium; assay: Antimicrobial activity against Salmonella typhimurium 7731 assessed as increase in absorbance incubated for 20 to 22 hrs; type: functional, Salmonella enterica subsp. enterica serovar Typhimurium; details: Salmonella enterica, time 20-22 hrs
[26] = system: Escherichia coli; assay: Induction of membrane damage in Escherichia coli ATCC 25922 assessed as damaged membrane surface (irregular vesicles protrusions) at 8 uM measured after 1 hr incubation by SEM analysis; type: functional, organism-based
[27] = system: Escherichia coli; assay: Antibiofilm activity against Escherichia coli ATCC 25922 biofilm assessed as inhibition of biofilm formation at 2 uM; type: functional, organism-based
[28] = system: Escherichia coli; assay: Antimicrobial activity against Escherichia coli ATCC 25922 assessed as increase in absorbance incubated for 4 hrs in presence of 12.5% serum; type: functional, organism-based
[29] = system: Escherichia coli; assay: Induction of membrane damage in Escherichia coli ATCC 25922 assessed as ruptured membrane by analysing green fluorescence at 8 uM measured after 1 hr incubation by SYTO - live and dead staining based fluorescence microscopy; type: functional, organism-based
[30] = system: Cell membrane; assay: Induction of depolarization of cytoplasmic membrane (CM) in Escherichia coli ATCC 25922 assessed as fluorescence changes at 1/2 to 3 times of MIC measured after 1000 to 3000 seconds by fluorescent probe DiSC3-5 assay; type: subcellular; details: time 1000-3000 sec
[31] = system: HEK-293T; assay: Cytotoxicity against human HEK293T cells assessed as cell death measured after 18 to 24 hrs by MTT assay; type: functional; details: time 18-24 hrs
[32] = system: Escherichia coli; assay: Antimicrobial activity against Escherichia coli ATCC 25922 assessed as increase in absorbance at 8 mg/ml incubated for 8 hrs in presence of pepsin; type: functional, organism-based
[33] = system: Lipopolysaccharide (LPS); assay: Binding affinity to Escherichia coli O111:B4 Lipopolysaccharide by fluorescent probe BODIPYTR-cadaverine (BC) assay; details: dose 1-16 µM
[34] = system: RAW264.7; assay: Cytotoxicity against mouse RAW264.7 cells assessed as cell death measured after 18 to 24 hrs by MTT assay; type: functional; details: time 18-24 hrs
[35] = system: Escherichia coli; assay: Antibiofilm activity against Escherichia coli ATCC 25922 biofilm assessed as removal of matured biofilm at 16 uM; type: functional, organism-based
[36] = system: Escherichia coli; assay: Antimicrobial activity against Escherichia coli ATCC 25922 assessed as increase in absorbance incubated for 20 to 22 hrs in presence of Mg2+ physiological salt; type: functional, organism-based; details: time 20-22 hrs
[37] = system: Staphylococcus aureus; assay: Antimicrobial activity against Staphylococcus aureus 29213 assessed as increase in absorbance incubated for 20 to 22 hrs; type: functional; details: time 20-22 hrs
[38] = system: Staphylococcus aureus; assay: Antimicrobial activity against methicillin-resistant Staphylococcus aureus 43300 assessed as increase in absorbance incubated for 20 to 22 hrs; type: functional; details: time 20-22 hrs
[39] = system: Escherichia coli; assay: Antimicrobial activity against Escherichia coli ATCC 25922 assessed as increase in absorbance at 8 mg/ml incubated for 8 hrs in presence of chymotrypsin; type: functional, organism-based
[40] = system: Escherichia coli; assay: Antimicrobial activity against Escherichia coli ATCC 25922 assessed as increase in absorbance incubated for 20 to 22 hrs in presence of Fe3+ physiological salt; type: functional, organism-based; details: time 20-22 hrs
[41] = system: Escherichia coli; assay: Antimicrobial activity against Escherichia coli ATCC 25922 assessed as increase in absorbance incubated for 20 to 22 hrs in presence of […] physiological salt; type: functional, organism-based; details: time 20-22 hrs
[42] = system: Staphylococcus epidermidis; assay: Antimicrobial activity against Staphylococcus epidermidis 12228 assessed as increase in absorbance incubated for 20 to 22 hrs; type: functional; details: time 20-22 hrs
[43] = system: Escherichia coli; assay: Induction of ROS accumulation in Escherichia coli ATCC 25922 at 4 uM incubated for 30 mins by DCFH-DA assay; type: functional, organism-based
[44] = Hemolytic activity in healthy human RBC assessed as hemolysis incubated for 1 hr by microplate reader; type: toxicity, cell-based; details: erythrocyte
[45] = Cytotoxicity against porcine IPEC-J2 cells assessed as cell death measured after 18 to 24 hrs by MTT assay; type: functional; details: Sus scrofa, time 18-24 hrs
[46] = system: Pseudomonas aeruginosa; assay: Antimicrobial activity against Pseudomonas aeruginosa 27853 assessed as increase in absorbance incubated for 20 to 22 hrs; type: functional; details: time 20-22 hrs
[47] = system: Escherichia coli; assay: Resistance fold, ratio of MIC for Escherichia coli ATCC 25922 measured after 30 day passage period to MIC for Escherichia coli ATCC 25922; type: functional
[48] = system: Mus musculus; assay: Anti-inflammatory activity against Escherichia coli ATCC 25922-induced peritonitis ICR mouse model assessed as decrease in IL-6 level in serum spleen at 5 mg/kg, ip measured after 12 hrs; type: functional, organism-based
[49] = system: Mus musculus; assay: Anti-inflammatory activity against Escherichia coli ATCC 25922-induced peritonitis ICR mouse model assessed as decrease in IL-1 beta level in serum spleen at 5 mg/kg, ip measured after 12 hrs; type: functional, organism-based
[50] = system: Mus musculus; assay: Anti-inflammatory activity against Escherichia coli ATCC 25922-induced peritonitis ICR mouse model assessed as decrease in TNF-alpha level in serum spleen at 5 mg/kg, ip measured after 12 hrs; type: functional, organism-based
[51] = system: Escherichia coli; assay: Resistance fold, ratio of MIC for Escherichia coli ATCC 25922 measured after 7 day passage period to MIC for Escherichia coli ATCC 25922; type: functional

## CCCCCCCCCC(=O)NCCCC[C@H](NC(=O)[C@@H](N)CSSC[C@H](N)C(=O)N[C@@H](CCCCNC(=O)CCCCCCCCC)C(=O)NCC(=O)NCC(=O)NCC(=O)N[C@H](CCCNC(=N)N)C(=O)N[C@@H](CCCNC(=N)N)C(=O)N[C@@H](CCCNC(=N)N)C(=O)N1CCC[C@H]1C(=O)O)C(=O)NCC(=O)NCC(=O)NCC(=O)N[C@H](CCCNC(=N)N)C(=O)N[C@@H](CCCNC(=N)N)C(=O)N[C@@H](CCCNC(=N)N)C(=O)N1CCC[C@H]1C(=O)O
[1]
  MIC: 4 µM (≈ 9.12 µg/mL)
[2]
  Activity: Active
[3]
  Activity: Active
[4]
  Activity: Dose-dependent-effect
[5]
  inhibition: Active
[6]
  Activity: Time-dependent-effect
[7]
  MIC: 8 µM (≈ 18.2 µg/mL)
[8]
  MIC: 8 µM (≈ 18.2 µg/mL)
[9]
  MIC: 4 µM (≈ 9.12 µg/mL)
[10]
  MIC: 16 µM (≈ 36.5 µg/mL)
[11]
  Activity: Active
[12]
  Activity: Active
[13]
  Activity: inactive
[14]
  MIC: 8 µM (≈ 18.2 µg/mL)
[15]
  Activity: Active
[16]
  MIC: 4 µM (≈ 9.12 µg/mL)
[17]
  Activity: Active
[18]
  Activity: Active; Negligible Alteration In Mic Values Found
[19]
  MIC: 4 µM (≈ 9.12 µg/mL)
[20]
  MIC: 4 µM (≈ 9.12 µg/mL)
[21]
  MIC: 8 µM (≈ 18.2 µg/mL)
[22]
  Activity: Active
[23]
  Activity: Active
[24]
  Activity: ~40%
[25]
  MIC: 8 µM (≈ 18.2 µg/mL)
[26]
  Activity: Active
[27]
  Activity: Active
[28]
  Activity: Active
[29]
  Activity: Active
[30]
  Activity: Dose-dependent-effect
[31]
  IC10: 256 µM
[32]
  Activity: Active; Negligible Alteration In Mic Values Found
[33]
  Activity: Dose-dependent-effect
[34]
  IC10: 256 µM
[35]
  Activity: Active
[36]
  Activity: Active
[37]
  MIC: 8 µM (≈ 18.2 µg/mL)
[38]
  MIC: 8 µM (≈ 18.2 µg/mL)
[39]
  Activity: Active; Negligible Alteration In Mic Values Found
[40]
  Activity: Active
[41]
  Activity: Active
[42]
  MIC: 8 µM (≈ 18.2 µg/mL)
[43]
  Activity: Active
[44]
  HC10: 256 µM
[45]
  IC10: 256 µM
[46]
  MIC: 8 µM (≈ 18.2 µg/mL)
[47]
  fold change (FC): <=2

## CNC(C)[C@@H]1CC[C@@H](N)[C@@H](O[C@H]2[C@H](O)[C@@H](O[C@H]3OC[C@](C)(O)[C@H](NC)[C@H]3O)[C@H](N)C[C@@H]2N)O1.CN[C@@H]1[C@@H](O)[C@@H](O[C@@H]2[C@@H](O)[C@H](O[C@H]3O[C@H](C(C)N)CC[C@H]3N)[C@@H](N)C[C@H]2N)OC[C@]1(C)O.CN[C@@H]1[C@@H](O)[C@@H](O[C@@H]2[C@@H](O)[C@H](O[C@H]3O[C@H](CN)CC[C@H]3N)[C@@H](N)C[C@H]2N)OC[C@]1(C)O (stereo not given in full)
[1]
  MIC: 0.25 µM
[48]
  Activity: Active
[7]
  MIC: > 64 µM
[49]
  Activity: Active
[10]
  MIC: > 64 µM
[19]
  MIC: 0.25 µM
[50]
  Activity: Active

## CN(C)[C@@H]1C(O)=C(C(N)=O)C(=O)[C@@]2(O)C(O)=C3C(=O)c4c(O)cccc4[C@@](C)(O)[C@H]3C[C@@H]12 [TETRACYCLINE]
[51]
  fold change (FC): 8
